ChEMBL document CHEMBL4390646, “A fragment-based approach towards the discovery of N-substituted tropinones as inhibitors of Mycobacterium tuberculosis transcriptional regulator EthR2” (Eur J Med Chem, 2019)
The source made the active and inactive calls. The calls are words filed in the database; no cut-off is given here.

Assays:
[1] = Inhibition of recombinant Mycobacterium tuberculosis EthR2 expressed in golden hamster BHK21 cells assessed as reduction in EthR2 and DNA interaction measured after 48 hrs by p-nitrophenyl phosphate based SEAP reporter gene assay; format: cell-based
[2] = tested on: Mycobacterium tuberculosis; assay: Binding affinity to recombinant Mycobacterium tuberculosis EthR2 assessed as change in melting temperature at 1 mM by Nano Orange dye based fluorescence thermal shift assay
[3] = tested on: Mycobacterium tuberculosis; assay: Binding affinity to recombinant Mycobacterium tuberculosis EthR2 assessed as change in melting temperature at 20 uM by SYPRO Orange dye based fluorescence thermal shift assay
[4] = tested on: Mycobacterium tuberculosis; assay: Inhibition of EthR2 in Mycobacterium tuberculosis assessed as potentiation of ETH bioactivation up to 30 uM using 0.1 ug/ml ETH
[5] = target: HTH-type transcriptional regulator EthR (Mycobacterium tuberculosis) (UniProt P9WMC1); assay: Binding affinity to Mycobacterium tuberculosis EthR at 30 uM by mammalian reporter assay
Sequence of HTH-type transcriptional regulator EthR (Mycobacterium tuberculosis) (P9WMC1 whole entry): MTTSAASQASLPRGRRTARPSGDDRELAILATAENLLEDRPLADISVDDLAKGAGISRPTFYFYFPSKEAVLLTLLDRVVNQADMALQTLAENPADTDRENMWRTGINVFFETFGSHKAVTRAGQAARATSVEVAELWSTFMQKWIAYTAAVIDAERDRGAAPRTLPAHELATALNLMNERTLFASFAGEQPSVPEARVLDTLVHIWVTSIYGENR

| Compound | pIC50 [1] | ΔTm [2] [°C] | ΔTm [3] [°C] | Activity [4] | Activity [5] |
| --- | --- | --- | --- | --- | --- |
| Clc1cccc(CN2CCNCC2)c1 | 5.5 | 3.1 | – | – | – |
| FC(F)=C1CC2CCC(C1)N2CCc1ccc(Cl)cc1 | < 4.8 | – | 0.6 | – | – |
| O=C1CC2CCC(C1)N2CCc1ccccc1C(F)(F)F | – | – | 0.3 | – | – |
| O=C1CC2CCC(C1)N2C(=O)Cc1ccc(Cl)cc1 | – | – | -0.1 | – | – |
| O=C1CC2CCC(C1)N2CCc1ccc(F)cc1 | 5.6 | – | 0.4 | inactive | – |
| O=C1C2CCCC1CN(CCc1ccc(Cl)cc1)C2 | – | – | -0.1 | – | – |
| O=C1CC2CCC(C1)N2CCc1ccccc1 | 5 | – | 0.1 | inactive | – |
| CCCNC(=O)Nc1cccc(C)n1 | < 4 | 2.2 | – | – | – |
| O=C1CC2CCC(C1)N2CCc1ccc(Br)cc1 | 6.1 | – | 1 | inactive | – |
| O=C1CC2CCCC(C1)N2CCc1ccc(Cl)cc1 | 5.8 | – | 0.6 | inactive | – |
| O=C1CC2CCC(C1)N2CCc1ccc(Cl)cc1Cl | 5.7 | – | 0.2 | – | – |
| COc1ccc(CCN2C3CCC2CC(=O)C3)cc1 | – | – | 0.3 | – | – |
| O=C1CC2CCC(C1)N2CCc1ccc([N+](=O)[O-])cc1 | – | – | -0.2 | – | – |
| Clc1ccc(CCN2C3CCC2CC2(C3)OCCO2)cc1 | < 4.8 | – | 0.1 | – | – |
| O=C1CC2CCC(C1)N2CCc1cccc(C(F)(F)F)c1 | – | – | -0.1 | – | – |
| O=C1CC2CCC(C1)N2CCc1ccc(C(F)(F)F)cc1 | 6.7 | – | 1.8 | inactive | – |
| O=C1CC2CCC(C1)N2CCc1ccc(Cl)cc1 | 6 | 3.4 | 0.6 | inactive | inactive |
| Cc1ccc(CCN2C3CCC2CC(=O)C3)cc1 | 5.8 | – | 0.6 | inactive | – |
| N=C(N)Nc1nc2ccccc2s1 | < 4 | 2.8 | – | – | – |
| O=C1C2CCC1CN(CCc1ccc(Cl)cc1)C2 | – | – | 0.1 | – | – |
| O=C1CC2CCC(C1)N2CCc1ccc(Cl)c(Cl)c1 | 6 | – | 1 | inactive | – |
| O=C1CC2CCC(C1)N2Cc1ccc(Cl)cc1 | – | – | 0 | – | – |
| CC(Cc1ccc(Cl)cc1)N1C2CCC1CC(=O)C2 (stereo not drawn) | – | – | 0.1 | – | – |
| COC1(OC)CC2CCC(C1)N2CCc1ccc(Cl)cc1 | < 4.8 | – | 0.2 | – | – |
| CC(C)Sc1nc2[nH]cnc(N)c-2n1 | 5.1 | 2.5 | – | – | – |
| O=C1CC2CCC(C1)N2CCc1ccncc1 | – | – | 0 | inactive | – |
